Assay results taken from patent US5597899A, “Tumor necrosis factor muteins” (Hoffmann-La Roche Inc., priority 1993, dated 1997).

Legend:
human TNFR-p75 [1] = assay: Solid phase radioligand competition binding assay, E. coli lysates, TNFR-p75; settings: 10-fold serial dilutions 10^-2 to 10^-7, < = inhibition but below 50% at 1:100, << = no measurable inhibition at 1:100
human TNFR-p75 [2] = assay: Competitive binding of purified muteins to recombinant human TNFR-p75; settings: for Decrease in Binding Affinity with Respect to Wildtype TNFR-p75: IC50 of mutein divided by IC50 of wildtype TNFα; for Mutein Concentration for 50% Inhibition of 125I-TNFα Binding (IC50) TNFR-p75: purified protein, 10 ng/ml 125I-TNFα
Protocol: (§1) The cells were disrupted in a French press at a pressure of 20'000 psi or by sonication in a Branson Sonifier (Model 450, 2×2minat maximal output, on ice). […] Proteins were eluted with a linear NaCl gradient (0 to 400 mM in 20 mM Tris pH 9.0) at a flow rate of 1 ml/min. 5 ml fractions were collected and analyzed for the presence of TNFα muteins by SDS-PAGE. Positive fractions were pooled, dialyzed against 20 mM 2-morpholino-ethanesulfonic acid (MES) pH 6.0 and applied to a MonoS column (HR 5/5, LKB-Pharmacia) equilibrated in 20 mM MES pH 6.0. Proteins were eluted with a linear NaCl gradient (0 to 400 mM in 20 mM MES pH 6.0) at a flow rate of 0.5 ml/min. […] After dialysis against PBS the protein concentration was determined by the BCA Protein Assay (Pierce Chemical Company) using wild-type human TNFα as a standard or by absorbance measurements at 280 nm.
(§2) TNFα was labelled by the Iodogen method (Pierce Chemical Company) to a specific activity of about 10-30 μCi/μg. The volume was 100 μl/well and each concentration was assayed in duplicate or triplicate. After three hours at room temperature the wells were thoroughly washed with PBS and counted in a γ-counter.

human TNFR-p55 [3] = assay: Solid phase radioligand competition binding assay, E. coli lysates, TNFR-p55; settings: for Dilution of E. coli Lysate for 50% Inhibition of 125I-TNFα Binding (ID50) TNFR-p55: 10-fold serial dilutions 10^-2 to 10^-7, < = inhibition but below 50% at 1:100, << = no measurable inhibition at 1:100; for ID50 TNFR-p55 / ID50 TNFR-p75: ratio = 1 no receptor selectivity, > 1 TNFR-p55 selectivity, < 1 TNFR-p75 selectivity
human TNFR-p55 [4] = assay: Competitive binding of purified muteins to recombinant human TNFR-p55; settings: for Decrease in Binding Affinity with Respect to Wildtype TNFR-p55: IC50 of mutein divided by IC50 of wildtype TNFα; for Mutein Concentration for 50% Inhibition of 125I-TNFα Binding (IC50) TNFR-p55: purified protein, 10 ng/ml 125I-TNFα, > = competition but below 50% at 100 μg/ml, >> = no measurable competition at 100 μg/ml
Protocol: as §1, §2

Substance	Dilution of E. coli Lysate for 50% Inhibition of 125I-TNFα Binding (ID50) TNFR-p75 (human TNFR-p75 [1])	Decrease in Binding Affinity with Respect to Wildtype TNFR-p75 (human TNFR-p75 [2]) [fold]	Mutein Concentration for 50% Inhibition of 125I-TNFα Binding (IC50) TNFR-p75 (human TNFR-p75 [2]) [ng/mL]	Dilution of E. coli Lysate for 50% Inhibition of 125I-TNFα Binding (ID50) TNFR-p55 (human TNFR-p55 [3]) [fold]	ID50 TNFR-p55 / ID50 TNFR-p75 (human TNFR-p55 [3])	Decrease in Binding Affinity with Respect to Wildtype TNFR-p55 (human TNFR-p55 [4])	Mutein Concentration for 50% Inhibition of 125I-TNFα Binding (IC50) TNFR-p55 (human TNFR-p55 [4])
D143N: human TNFα mutein D143N	330 fold	6.7	300	< 100	< 0.3	> 2,500 fold	> 100,000 ng/ml
D143Y: human TNFα mutein D143Y	1,330 fold	17.5	350	< 100	< 0.08	> 6,660 fold	> 100,000 ng/ml
